Reference: patent US11110070B2 (priority 2015, dated 2021)
“Also recorded” adds a separate entry of the source.

Key:
129S6/SvEvTac mice = test: Forced swim test (FST) in social defeat (SD) model; type: in vivo
Method: Experiment 1 (Pre-ketamine in social defeat (SD)): At 8 weeks of age, a single injection of saline (0.9% NaCl) or ketamine (K) (10, 30, or 90 mg kg^−1) (Ketaset III, Ketamine HCl, Fort Dodge Animal Health, Forth Dodge, Iowa) was administered. Ketamine was prepared in physiological saline and all injections were administered intraperitoneally (i.p.) in volumes of 0.1 cc per […]. […] At 9 weeks of age, 1 week following this injection, SD was started.
24 h after the last bout of SD, a single injection of saline or ketamine (30 mg kg^−1) was administered (mice were 11 weeks old). The forced swim test (PST) was administered 2 h following the injection.
Experiment 3 (Pre-fluoxetine in SD): At 6 weeks of age, fluoxetine hydrochloride (Fix) (BioTrend Chemicals AG, B6197) was administered in the drinking water (18 mg kg^−1/day) for 3 weeks before the start of SD. Starting at 9 weeks of age, SD was then administered for 2 weeks without vehicle or Flx in the drinking water.
Adult aggressor CD-1 male mice were single-housed in Macrolon® polycarbonate resin cages (15.25 in×7.8 in×9.5 in) (Animal Care Systems, Inc., Centennial, Colo.). Male 129S6/SvEvTac mice (9 weeks of age) were subsequently placed into the resident. CD-1 mouse's cage. Three antagonistic encounters were allowed between the CD-1 mouse and the intruder. Each of these encounters typically lasted less than 5 min. Following the encounters, mice were separated by a polished stainless steel cage divider (Animal Care Systems, Inc., Centennial, Colo., P/N C79171), which allowed for olfactory and auditory communication, but limited visual or tactile contact. The partition was removed daily for 2 weeks and 3 antagonistic encounters were allowed between the mice each day. This procedure consistently yielded a submissive phenotype in the experimental intruder mice. Control (Ctrl) mice were group housed 4 to 5 per cage in Macrolon® polycarbonate resin cages without dividers.
The FST was administered as previously described (A11). Briefly, mice were placed into clear plastic buckets 20 cm in diameter and 23 cm deep filled ⅔ of the way with 22° C. water. Mice were videotaped, from the side for 6 min and were exposed to the swim test on 2 consecutive days. For the SI) experiments, scoring was performed using an automated Viewpoint Videotrack software package (http://www.viewpoint.fr/en/a/anxiety-and-depression). For the CORT experiments, automated scoring was done using the automated X'PERT EST software suite (Bioseb, Vitrolles, France). The dependent variable was immobility.

[1] = Body weight loss before NSF in SD experiments; type: in vivo; conditions: SD mice; ketamine after SD; vs saline
Method: Testing was performed as previously described (A13). Briefly, the testing apparatus consisted of a plastic box (50×50×20 cm). The floor was covered with approximately 2 cm of wooden bedding and the arena was brightly lit (1100-1200 lux). For 129S6/SvEv experiments, mice were food restricted for 12 h. For the C57BL/6N experiments, mice were food restricted for 24 h. All food was removed from the home cage. At the time of testing, a single pellet of food (regular chow) was placed on a white paper platform positioned in the center of the box. Each animal was placed in a corner of the box, and a stopwatch was immediately started. The latency of the mice to begin eating was recorded. Immediately after the latency was recorded, the food pellet was removed from the arena. The mice were then placed into a cage and the amount of food consumed in 5 min was measured (home cage consumption), followed by an assessment of post-restriction weight. We used the Kaplan-Meier survival analysis due to the lack of normal distribution of data. The Mantel-Cox log-rank test was used to evaluate differences between the experimental groups.

C57BL/6NTac mice = test: EPM in CORT model; type: in vivo; conditions: ketamine or fluoxetine before CORT
Method: Experiment 5 (Pre-ketamine and pre-fluoxetine corticosterone (CORT)): C57BL16NTac mice were injected with ketamine (10, 30, 90 mg kg^−1, i.p.) 1 week before the start of CORT, or administered fluoxetine (18 mg kg^−1 per day) in the drinking water for 3 weeks before the start of CORT. Ketamine was purchased from Merial (100 mg/ml stock solution). Fluoxetine hydrochloride (160 μg/mL, equivalent to 18 mg kg^−1 per day in the drinking water) was purchased from Anawa Trading (Zurich, Switzerland) and dissolved in 0.45% hydroxypropyl-β-cyclodextrin (β-CD) (Sigma-Aldrich, Saint-Quentin Fallavier, France) solution. Following ketamine or fluoxetine treatment, CORT was administered for 3 weeks in the drinking water. CORT (4-pregnen-11b-DIOL-3 20-DIONE 21-hemisuccinate) (35 μg/ml) from. Sigma Aldrich (Saint-Quentin Fallavier, France) was dissolved in vehicle (0.45% β-CD). Control animals received vehicle (0.45% β-CD) throughout the duration of the experiment.
Testing was performed as previously described (A14). […] For the 12956/SvEv experiments, videos were scored using behavioral tracking software (TopScan, CleverSys, Reston, Va.). For the C57BL/6Ntac experiments, all parameters were measured using a videotracker (EPM3C. Bioseb, Vitrolles, France).

[2] = Body weight in CORT model; type: in vivo, mice; conditions: ketamine 90 mg kg^−1 single injection or fluoxetine 18 mg kg^−1 for 3 weeks, before CORT
[3] = in rodents; cited from earlier work

For `CNC1(c2ccccc2Cl)CCCCC1=O` (racemic) [ketamine, (RS)-2-(2-chlorophenyl)-2-(methylamino)cyclohexanone], the “immobility time, day 2 of FST” value (129S6/SvEvTac mice; Ctrl (group housed) mice, ketamine 30 mg kg^−1 single i.p. injection, vs Ctrl-Sal) was “equal levels of immobility time; also recorded: did not differ from each other”, the “immobility time, day 2 of FST” value (129S6/SvEvTac mice; Ctrl mice, ketamine 30 mg kg^−1 in the post-SD design) was “did not display different immobility time” and the “immobility time in FST” value (129S6/SvEvTac mice; SD mice, ketamine 10 mg kg^−1 before SD, vs SD-Sal) was “did not differ in immobility time”. For the same molecule, the “average immobility time for minutes 3 to 6 of FST” value (129S6/SvEvTac mice; SD mice, ketamine 30 mg kg^−1 before SD, vs SD-Sal) was “less than the SD-Sal mice; also recorded: decreased immobility”, the “immobility time, day 2 of FST” value (129S6/SvEvTac mice; SD mice, ketamine 30 mg kg^−1 single injection 1 week before 2 weeks of SD, vs SD-Sal) was “significantly decreased immobility time; also recorded: significantly less immobility time” and the “immobility time in FST” value (129S6/SvEvTac mice; SD mice, ketamine 90 mg kg^−1 before SD, vs SD-Sal) was “did not differ in immobility time”. The “persistence of ketamine-induced resilience post-injection” value (129S6/SvEvTac mice; SD model) was “at least 3 weeks”, the “dose found to be effective in the SD paradigm” value (129S6/SvEvTac mice; doses tested 10, 30, 90 mg kg^−1) was 30 mg/kg and the “immobility time, minutes 3 to 6 averaged” value (129S6/SvEvTac mice; ketamine given after SD) was “did not decrease immobility time”. The “percentage of weight loss” value [1] was “lessened the percentage of weight loss; also recorded: attenuated this weight loss”, the “time in the closed arms of EPM (anxiety-like phenotype)” value (C57BL/6NTac mice) was “Neither ketamine nor fluoxetine robustly protected” and the “CORT-induced increase in body weight” value [2] was “prevented the CORT-induced increase in body weight”. The half-life [3] was “only a few hours”.
